In US7700584B2 (Hangzhou Minsheng Pharmaceuticals Co., Ltd., priority 2004, dated 2010):
Values after ≈ are worked out from the molar mass of the structure shown. Read-outs that look alike come from different tables or passages of the source.

Legend:
[1] = test system: U-937 human histocytic lymphoma; assay: In vitro inhibition rate to tumor cells (MTT), U-937; assay type: cell-based; details: for inhibition at 50 µg/mL: Homo sapiens, U-937, 50 μg/ml, read-out: inhibition rate, Results (%) U-937; for inhibition rate, Results (%) U-937: 50 μg/ml
[2] = test system: A-549 human lung adenocarcinoma; assay: In vitro inhibition rate to tumor cells (MTT), A-549; assay type: cell-based; details: for inhibition at 50 µg/mL: Homo sapiens, A549, 50 μg/ml, read-out: inhibition rate, Results (%) A-549; for inhibition rate, Results (%) A-549: 50 μg/ml
[3] = test system: Bel-7402 human hepatic carcinoma; assay: In vitro inhibition rate to tumor cells (MTT), Bel-7402; assay type: cell-based; details: for inhibition at 50 µg/mL: Homo sapiens, Bel-7402, 50 μg/ml, read-out: inhibition rate, Results (%) Bel-7402; for inhibition rate, Results (%) Bel-7402: 50 μg/ml
[4] = test system: MCF-7 human mammary adenocarcinoma; assay: In vitro inhibition rate to tumor cells (MTT), MCF-7; assay type: cell-based; details: for inhibition at 50 µg/mL: Homo sapiens, MCF7, 50 μg/ml, read-out: inhibition rate, Results (%) MCF-7; for inhibition rate, Results (%) MCF-7: 50 μg/ml
[5] = test system: SMMC-7721 human hepatic carcinoma; assay: In vitro inhibition rate to tumor cells (MTT), SMMC-7721; assay type: cell-based; details: for inhibition at 50 µg/mL: Homo sapiens, SMMC-7721, 50 μg/ml, read-out: inhibition rate, Results (%) SMMC-7721; for inhibition rate, Results (%) SMMC-7721: 50 μg/ml
[6] = test system: HL-60 human promyelocytic leukemia; assay: In vitro inhibition rate to tumor cells (MTT), HL-60; assay type: cell-based; details: for inhibition at 50 µg/mL: Homo sapiens, HL-60, 50 μg/ml, read-out: inhibition rate, Results (%) HL-60; for inhibition rate, Results (%) HL-60: 50 μg/ml
[7] = test system: Hela human cervical carcinoma; assay: In vitro inhibition rate to tumor cells (MTT), Hela; assay type: cell-based; details: 50 μg/ml; for inhibition at 50 µg/mL: Homo sapiens, HeLa, read-out: inhibition rate, Results (%) Hela
[8] = test system: LLC mouse Lewis lung carcinoma; assay: In vitro inhibition rate to tumor cells (MTT), LLC; assay type: cell-based; details: 50 μg/ml; for inhibition at 50 µg/mL: Mus musculus, Lewis lung carcinoma
[9] = test system: Hepatitis B virus (HBV); assay type: cell-based; details: 200 μg/ml; for (Value of the positive control - Measured Value) Value of the positive control × 100%: decrease of HBeAg relative to positive control; for OD450 of HBeAg: supernatant four days after infection, positive control 1.917, negative 0.057
[10] = test system: HepG2 cells; assay: Cell status of HepG2 cells treated with sample (HBV screening); assay type: cell-based; details: 200 μg/ml, HepG2, four days after infection
Experimental: 1.5 Screening for the agents: The HepG2 cells were counted and 1.5×10^4 cells/well were seeded into a 96-well plate. After incubation overnight in an atmosphere of CO2 at 37° C., each of the experimental samples in a given concentration was added to the cells. After incubation at 37 °C for 24 hrs, the HepG2 treated with the samples were infected with vAcGFPHBVc of 100 MOI. A negative control and a positive control were also included. Four days after infection, the growth of the cells were observed, and the HBV e antigen in the supernatant was measured with the HBV e antigen diagnostic kit.

[11] = test system: MDCK (dog kidney) cells; assay: Toxicity TC50 of the samples in MDCK cells (influenza screening); details: concentration of 50% toxicity
[12] = molecular target: T1, HIV-1 proteinase (HIV-1 PR) (Human immunodeficiency virus type 1 group M subtype B, UniProt P04585); assay: Screening for in vitro activity against HIV-1 proteinase; assay type: biochemical; details: for inhibition at 0.08 µg/mL: 0.08 μg/ml; for inhibition at 0.08 µg/mL / inhibition at 0.4 µg/mL / inhibition at 2 µg/mL / inhibition at 10 µg/mL: read-out: Inhibition rate; for inhibition at 0.4 µg/mL: 0.40 μg/ml; for inhibition at 2 µg/mL: 2.0 μg/ml; for inhibition at 10 µg/mL: 10 μg/ml; for IC50: IC50, five 5× serial dilutions from 50 μg/ml; for inhibition at 50 µg/mL: read-out: Inhibition rate, 50 μg/ml
T1 construct: HIV-1 proteinase digests the fluorescent-labeled substrate; purchased
Experimental: Principle of the test: HIV-1 proteinase digests the fluorescent-labeled substrate in an optimal reaction condition and system. The activity of the enzyme can be reflected by the fluorescent intensity in the product of the enzyme reaction. Adding a sample into the reaction system can be used for screening the inhibitor of the enzyme.
1. HIV-1 PR: commercially available, stored at −85° C.
2. Treatment of the samples: Before use, sample was dissolved in DMSO at a suitable concentration, then serially diluted (5×) with double distilled water, five serial dilutions per sample.
3. Positive control: indinavir, purchased from […].
4. Methods: The diluted sample was added into the reaction buffer containing the fluorescent-labeled substrate. Then the genetic engineered target enzyme was added, and incubated in the optimal reaction condition. The fluorescent value was measured with a FLUO star Galaxy luminoscope.

[13] = molecular target: T2, HIV-1 reverse transcriptase (Human immunodeficiency virus type 1 group M subtype B, UniProt P04585); assay: Screening for the in vitro activity against the HIV-1 reverse transcriptase; assay type: biochemical; details: IC50, initial concentration 200 μg/ml
T2 construct: purchased
Experimental: Principle of the test: The template to which the HIV-1 reverse transcriptase interacts was covered onto the enzyme-lined template. In the optimal reaction conditions and system, HIV-1 RT will put the substrate comprising Biotin-dUTP onto the reaction template. The activity of the enzyme was measured as the amount of the integrating Biotin-dUTP in the reaction by using streptavidin-labeled horseradish peroxidase. Adding the sample to the reaction system can identify inhibitor of the enzyme.
1. HIV-1 RT: commercially available.
2. Treatment of the samples: Before use, the sample was dissolved in DMSO at a suitable concentration, then serially diluted (5×) with double distilled water, five serial dilutions per sample.
4. Methods: The diluted sample was added into the reaction buffer containing Biotin-dUTP and the genetic engineered target enzyme, and incubated in the optimal reaction conditions. A streptavidin-labeled horseradish peroxidase was added to visual the system, and OD450 was measured.

[14] = molecular target: T3, HIV-1 integrase (HIV-1 IN) (Human immunodeficiency virus type 1 group M subtype B, UniProt P04585); assay: Screening for the activity against HIV-1 integrase; assay type: biochemical; details: initial concentration 100 μg/ml; read-out: IC50
T3 construct: a purified HIV-1 integrase was added into each well; purchased
Experimental: Principle of the test: A synthetic oligonucleotide of 30 nt was used as the donor substrate. A synthetic oligonucleotide of 20 nt was used as the target substrate. A 96-well plate was covered by the donor substrate, and a purified HIV-1 integrase was added into each well. ELISA was performed to measure the product of the target DNA chain transfer. A biotin-labeled alkali phosphatase was used to visual the system. OD value was measured by an Enzyme-linked Detector. Add a sample into the reaction system for screening the inhibitor of the enzyme.
1. HIV-1 IN: commercially available.
2. Treatment of the samples: Before use, the sample was dissolved in water or DMSO at a suitable concentration, then serially diluted (5×), four serial dilutions per sample. The stock solutions of two samples were 100-fold diluted with DMSO, then 5-fold diluted, four serial dilutions per sample. Positive control: S-y, provided by Shanghai Organic Chemistry Institute.
3. The donor substrate and target substrate: synthesized by Shanghai Biological Engineering Company (Shanghai Shenggong).
4. Methods: The diluted sample was added into a 96-well plate covered by the donor substrate, and then added into the reaction buffer containing the genetic engineered target enzyme and biotin-target substrate, incubated in the optimal reaction conditions. A biotin-labeled alkali phosphatase was used to visual the system to determine the absorbance at 450 nm (OD450).

[15] = test system: Hela human cervical carcinoma; assay: In vitro anti-tumor IC50 (MTT), Hela; assay type: cell-based; details: Table 4
Experimental: (§1) (1) Single cell suspension was seeded into 96-well plates (the cells was diluted in the PRMI-1640 minimum medium to 3×10^4 cells/ml, […] diluted cells/well). […] The experiments were performed in quadruplicate.
(§2) (2) The medium was removed. Solutions of the anti-tumor agents (50 compounds) were prepared in a freshly prepared medium at serial concentrations. […] of the solution was added into each well. Incubation was continued for 48 hours.
(§3) (3) 20 ug of 2 mg/ml MTT was added into each well, and incubated for 4 hours.
(§4) (4) The medium was removed from the well. The microplates were swiftly turned down to throw-off the medium. […] of DMSO was added into each well, and vortexed at room temperature for 10 minutes.
(§5) (5) OD value (λ=570 nm) was measured with an Enzyme-Linked Detector.
(§6) (6) The graph of cell vitality was plotted, and IC50 was calculated.

[16] = test system: U-937 human histocytic lymphoma; assay: In vitro anti-tumor IC50 (MTT), U-937; assay type: cell-based; details: Table 4
Experimental: as §1, §2, §3, §4, §5, §6

| Compound | inhibition at 50 µg/mL ([1]; Table 1) [%] | inhibition at 50 µg/mL ([1]; Table 2 (repeated screening)) [%] | inhibition at 50 µg/mL ([2]; Table 1) [%] | inhibition at 50 µg/mL ([2]; Table 2 (repeated screening)) [%] | inhibition at 50 µg/mL ([3]; Table 1) [%] | inhibition at 50 µg/mL ([3]; Table 2 (repeated screening)) [%] | inhibition at 50 µg/mL ([4]; Table 1) [%] | inhibition at 50 µg/mL ([4]; Table 2 (repeated screening)) [%] | inhibition at 50 µg/mL ([5]; Table 1) [%] | inhibition at 50 µg/mL ([5]; Table 2 (repeated screening)) [%] | inhibition at 50 µg/mL ([6]; Table 1) [%] | inhibition at 50 µg/mL ([6]; Table 2 (repeated screening)) [%] | inhibition at 50 µg/mL ([7]; Table 1) [%] | inhibition at 50 µg/mL ([7]; Table 2 (repeated screening)) [%] | inhibition at 50 µg/mL ([8]; Table 1) [%] | inhibition at 50 µg/mL ([8]; Table 2 (repeated screening)) [%] | (Value of the positive control - Measured Value) Value of the positive control × 100% [9] [%] | OD450 of HBeAg [9] | Cell status [10] | inhibition at 0.08 µg/mL [12] [%] | further results |
| --- | --- | --- | --- | --- | --- | --- | --- | --- | --- | --- | --- | --- | --- | --- | --- | --- | --- | --- | --- | --- | --- |
| C=C1CC2(OC)OC3(CC2C(C)C)C(C)CCC13 (centres unmarked) [Compound 25, Curcumol methyl ether] | 86.9 | 82.4 | 13.7 | 14.2 | 5.68 | 2.03 | 9.53 | 8.12 | 0.24 | 8.32 | -2.63 | 1.23 | 81.9 | 75.5 | 4.18 | 1.02 | −31.8206 | 2.527 | Poor | – | TC50 [11]: >1000 µg/mL |
| CC(C)C1CC23OC1(O)CC(C)C2CCC3C (centres unmarked) [Compound 33, hydrogenated curcumol derivative] | 44.3 | 43.2 | 16.3 | 14.3 | 14.3 | 14.9 | 45.3 | 39.3 | -7.44 | -1.56 | 1.32 | 7.68 | 60.9 | 59.8 | 4.18 | 3.12 | 96.45 | 0.068 | Poor | 13.2 | inhibition at 0.4 µg/mL [12]: 11.4%; inhibition at 2 µg/mL [12]: 10.6%; inhibition at 10 µg/mL [12]: 1.3%; IC50 [12]: > 210 µM; inhibition at 50 µg/mL [12]: 9.14%; IC50 [13]: > 839 µM; inhibition at 100 µg/mL [14]: < 50% |
| CCCCNC=C1CC2(O)OC3(CC2C(C)C)C(C)CCC13 (centres unmarked) [Compound 13, Curcumol n-butyl amine] | – | – | – | – | – | – | – | – | – | – | – | – | – | – | – | – | – | – | – | – | inhibition rate, Results (%) U-937 ([1]; Table 1): 51.10%; inhibition rate, Results (%) U-937 ([1]; Table 2 (repeated screening)): 45.10%; inhibition rate, Results (%) A-549 ([2]; Table 1): 7.59%; inhibition rate, Results (%) A-549 ([2]; Table 2 (repeated screening)): 3.56%; inhibition rate, Results (%) Bel-7402 ([3]; Table 1): 33.16%; inhibition rate, Results (%) Bel-7402 ([3]; Table 2 (repeated screening)): 30.25%; inhibition rate, Results (%) MCF-7 ([4]; Table 1): 54.67%; inhibition rate, Results (%) MCF-7 ([4]; Table 2 (repeated screening)): 50.36%; inhibition rate, Results (%) SMMC-7721 ([5]; Table 1): 3.71%; inhibition rate, Results (%) SMMC-7721 ([5]; Table 2 (repeated screening)): 0.23%; inhibition rate, Results (%) HL-60 ([6]; Table 1): 0.12%; inhibition rate, Results (%) HL-60 ([6]; Table 2 (repeated screening)): 0.79%; inhibition rate, Results (%) Hela ([7]; Table 1): 66.32%; inhibition rate, Results (%) Hela ([7]; Table 2 (repeated screening)): 65.92%; inhibition rate, Results (%) LLC ([8]; Table 1): 0.24%; inhibition rate, Results (%) LLC ([8]; Table 2 (repeated screening)): 1.32%; IC50 (ug/ml) against tumor cell lines, Hela [15]: 1.6 µg/mL (≈ 5.2 µM); IC50 (ug/ml) against tumor cell lines, U-937 [16]: 0.98 µg/mL (≈ 3.19 µM) |
| CC(C)C1CC23OC1(O)CC1(CO1)C2CCC3C (centres unmarked) [Compound 47, Curcumol epoxy compound] | 86.5 | 85.4 | -12 | -7.85 | 2.88 | 2.35 | 65.1 | 60.5 | -1.43 | -3.25 | 10.3 | 1.96 | 83.7 | 80.8 | -13.2 | -14 | 80.96 | 0.365 | Poor | 6.89 | inhibition at 0.4 µg/mL [12]: 12.3%; inhibition at 2 µg/mL [12]: 12.9%; inhibition at 10 µg/mL [12]: 1.78%; IC50 [12]: > 198 µM; inhibition at 50 µg/mL [12]: 0.56%; IC50 [13]: > 793 µM; inhibition at 100 µg/mL [14]: < 50% |
